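Following 48 hours of exposure in 96-well plates, responses at five concentrations were used to interpolate endpoints linearly. At the GI50, growth is halved.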 Activity calls are given as the source filed them. No stated cut-off is given here; in the data, active = GI50 up to about 1.1 µM and inactive = higher.

Some test systems named below: 786-0; A498; COLO 205; DU-145; HCT-116; HOP-92; IGROV-1; KM12; MOLT-4; NCI-H522; OVCAR-4; OVCAR-8; PC-3; RXF 393; SF-268; SF-539; SK-MEL-2; SK-MEL-5; SW-620; UO-31.
What all share (experiment): NCI-60 cell line screen, 48 h

On to `Cc1ccccc1OC(C)C(=O)NN1C(=O)CC(=O)N(c2ccccc2)C1=S` (centres undefined), for which the GI50 in the assay on 786-0 is 82.4 µM (inactive); in the assay with A498, 36 µM (inactive); in the assay with COLO 205 it was 68.4 µM (inactive); in the assay on DU-145 it was 51.1 µM (inactive); with HCT-116 it was 33.4 µM (inactive); in the assay with HOP-92 it was 37.3 µM (inactive). The GI50 in the assay on IGROV-1 is 80.4 µM (inactive); in the assay with KM12, 75.5 µM (inactive); in the assay with MOLT-4, 34 µM (inactive); in the assay with NCI-H522, 77.4 µM (inactive); in the assay on OVCAR-4, > 100 µM (inactive); with OVCAR-8, 56.6 µM (inactive). Moreover, the GI50 was 72.1 µM (inactive) with PC-3; 61.4 µM (inactive) with RXF 393; 76.6 µM (inactive) in the assay with SF-268; > 100 µM (inactive) in the assay on SF-539; 72.9 µM (inactive) with SK-MEL-2; 60.3 µM (inactive) with SK-MEL-5. Further, the GI50 is 78.3 µM (inactive) in the assay on SW-620 and 35.8 µM (inactive) in the assay on UO-31.

Turning to `O=C(CC(Cl)=C(Cl)Cl)c1ccccc1`, the GI50 in the assay with 786-0 is 21.8 µM (inactive); in the assay on A498, > 100 µM (inactive); in the assay on COLO 205, 28.8 µM (inactive); in the assay on DU-145 it was > 100 µM (inactive); in the assay on HCT-116, 21.3 µM (inactive); in the assay on HOP-92, > 100 µM (inactive). For the same compound, the GI50 was 80 µM (inactive) in the assay with IGROV-1; 53.1 µM (inactive) with KM12; 12.3 µM (inactive) in the assay on MOLT-4; 23.9 µM (inactive) in the assay on NCI-H522; 17.5 µM (inactive) with OVCAR-4; > 100 µM (inactive) in the assay on OVCAR-8. Also, the GI50 in the assay with PC-3 was > 100 µM (inactive); in the assay on RXF 393, 21.2 µM (inactive); in the assay with SF-268 it was > 100 µM (inactive); with SF-539, > 100 µM (inactive); in the assay on SK-MEL-2, > 100 µM (inactive); in the assay on SK-MEL-5 it was > 100 µM (inactive). For the same compound, the results for the GI50 with SW-620 and with UO-31 were 38.3 µM (inactive) and 80.2 µM (inactive), respectively.

Turning to `Cc1cc(O)c2c(c1O)C(=O)c1c(O)ccc(O)c1C2=O` [Cynodontin], the GI50 in the assay on 786-0 was 82 µM (inactive); in the assay with A498 it was > 100 µM (inactive); in the assay on COLO 205, > 100 µM (inactive); in the assay with DU-145, > 100 µM (inactive); in the assay with HCT-116, > 100 µM (inactive); in the assay on HOP-92, > 100 µM (inactive). The GI50 in the assay with IGROV-1, in the assay on KM12, with MOLT-4, in the assay on NCI-H522, in the assay with OVCAR-4 and in the assay on OVCAR-8 was > 100 µM (inactive) in each case. Also, the GI50 with PC-3, in the assay on RXF 393, in the assay on SF-268, in the assay on SF-539, with SK-MEL-2 and in the assay on SK-MEL-5 was > 100 µM (inactive) each time. Further, in the assay on SW-620, the GI50 is > 100 µM (inactive).

With `COc1cc(CNC(=O)CCCCCCCCCCSC#N)ccc1O`, the GI50 in the assay with 786-0 was 17.8 µM (inactive); in the assay with A498 it was 15.1 µM (inactive); in the assay with COLO 205, 30.3 µM (inactive); in the assay on DU-145 it was 17.8 µM (inactive); with HCT-116, 14.9 µM (inactive); with HOP-92 it was 17.1 µM (inactive). Also, the GI50 in the assay on IGROV-1 is 4.59 µM (inactive); in the assay with KM12 it was 5.83 µM (inactive); in the assay on MOLT-4 it was 3.94 µM (inactive); in the assay with NCI-H522, 12.3 µM (inactive); in the assay with OVCAR-4 it was 25 µM (inactive); with OVCAR-8 it was 18.5 µM (inactive). In addition, the GI50 in the assay with PC-3 is 6.82 µM (inactive); in the assay with RXF 393, 10.2 µM (inactive); with SF-539, 18 µM (inactive); in the assay on SK-MEL-2, 14.1 µM (inactive); in the assay with SK-MEL-5, 6.22 µM (inactive); in the assay with SW-620 it was 16.2 µM (inactive). Moreover, the GI50 with UO-31 is 3.52 µM (inactive).

As for `CC(=O)NC1C(OCc2ccccc2)OC(CO)C(O)C1OCC(=O)N[C@@H](C)C(=O)N[C@H](CCC(=O)NCCNCCNc1c2ccccc2nc2cccc([N+](=O)[O-])c12)C(N)=O` (some centres undefined), the GI50 in the assay on 786-0 is 25.4 µM (inactive); in the assay on A498 it was 19.8 µM (inactive); in the assay on COLO 205, 25 µM (inactive); in the assay on DU-145, 36.6 µM (inactive); in the assay with HCT-116 it was 19.5 µM (inactive); in the assay with HOP-92, 20.7 µM (inactive). Besides, the GI50 in the assay on IGROV-1 is 8.87 µM (inactive); in the assay with KM12, 24.2 µM (inactive); in the assay on NCI-H522, 4.92 µM (inactive); in the assay on OVCAR-4, 17.3 µM (inactive); in the assay with OVCAR-8 it was 27.4 µM (inactive); in the assay on PC-3, 22.1 µM (inactive). The GI50 in the assay on RXF 393 is 36.4 µM (inactive); in the assay with SF-539, 33.3 µM (inactive); with SK-MEL-2 it was 22.3 µM (inactive); in the assay on SK-MEL-5, 17.8 µM (inactive); with SW-620 it was 39.1 µM (inactive); in the assay on UO-31, 44.8 µM (inactive).

Regarding `C/C=C1/CC(C)C(C)(O)C(=O)OCC2C(O)CN3CCC(OC1=O)C23` (centres undefined), the GI50 with 786-0, in the assay on A498, in the assay on COLO 205, with DU-145, in the assay with HCT-116 and in the assay with HOP-92 was > 100 µM (inactive) throughout. For the same compound, the GI50 with IGROV-1 is > 100 µM (inactive); with KM12, > 100 µM (inactive); with MOLT-4, > 100 µM (inactive); with NCI-H522, 68.9 µM (inactive); in the assay with OVCAR-4 it was > 100 µM (inactive); with OVCAR-8, > 100 µM (inactive). Besides, the GI50 in the assay on PC-3, with RXF 393, in the assay on SF-268, with SF-539, in the assay on SK-MEL-2 and in the assay with SK-MEL-5 was > 100 µM (inactive) each time. Further, the GI50 in the assay with SW-620 was > 100 µM (inactive).

On to `CC(=O)O[C@H](C[C@@H](C)[C@H]1C(=O)[C@H](O)[C@@]2(C)C3CC[C@H]4C(C)(C)[C@@H](OC5OCC(O)C(O)C5O)CC[C@@]45C[C@@]35CC[C@]12C)[C@@H]1OC1(C)C` (some centres undefined), for which the GI50 is 16.6 µM (inactive) with 786-0; 15.9 µM (inactive) with A498; 22 µM (inactive) in the assay on COLO 205; 19 µM (inactive) with DU-145; 18.1 µM (inactive) in the assay on HCT-116; 16.9 µM (inactive) in the assay with HOP-92. The GI50 with IGROV-1 is 16.2 µM (inactive); with KM12, 22.2 µM (inactive); in the assay with NCI-H522, 17.4 µM (inactive); in the assay on OVCAR-4, 22.4 µM (inactive); in the assay with OVCAR-8 it was 20.2 µM (inactive); in the assay on PC-3, 15.2 µM (inactive). The GI50 is 16.8 µM (inactive) with RXF 393; 20.7 µM (inactive) with SF-268; 16.3 µM (inactive) with SF-539; 16 µM (inactive) with SK-MEL-2; 16.1 µM (inactive) with SK-MEL-5; 32.4 µM (inactive) in the assay on SW-620. In addition, the GI50 in the assay on UO-31 is 22.9 µM (inactive).

Take `CCOc1cc(/C=C2/C(C)=NN(c3cccc(Cl)c3)/C2=N/c2nc3ccccc3s2)ccc1O`: the GI50 in the assay with 786-0 is 32.1 µM (inactive); in the assay on A498, 24.2 µM (inactive); with DU-145, 46.1 µM (inactive); with HCT-116, 24.2 µM (inactive); in the assay on HOP-92 it was 23.2 µM (inactive); in the assay on IGROV-1 it was 29.6 µM (inactive). The GI50 with MOLT-4 was 32.7 µM (inactive); in the assay on NCI-H522, 21.9 µM (inactive); with OVCAR-8 it was 30.4 µM (inactive); with PC-3 it was 19.8 µM (inactive); in the assay on RXF 393, 38.6 µM (inactive); in the assay with SF-268, 28.2 µM (inactive). Besides, the GI50 in the assay with SF-539 is 24.5 µM (inactive); with SK-MEL-2, 21.1 µM (inactive); with SK-MEL-5, 17.8 µM (inactive); with SW-620, 34.6 µM (inactive); in the assay with UO-31 it was 19.4 µM (inactive).

Turning to `CCN(CC)CCC(=O)O[C@H]1CC[C@H](CC(C)[C@H]2CC(=O)C(C)C=C(C)[C@H](OC(=O)CCN(CC)CC)C(OC)C(=O)[C@@H](C)CC(C)/C=C/C=C/C=C(C)C(OC)CC3CC[C@H](C)[C@](O)(O3)C(=O)C(=O)N3CCCCC3C(=O)O2)CC1OC` (some centres undefined), the GI50 was 0.0197 µM (active) in the assay with 786-0; 0.0161 µM (active) in the assay on A498; 0.906 µM (active) in the assay with COLO 205; 0.179 µM (active) with DU-145; 0.865 µM (active) in the assay on HCT-116; 0.0348 µM (active) with HOP-92. Also, the GI50 in the assay on KM12 is 0.443 µM (active); in the assay on MOLT-4 it was 0.0185 µM (active); with NCI-H522, 0.0276 µM (active); with OVCAR-4 it was < 0.0132 µM (active); with OVCAR-8, 0.0362 µM (active); in the assay on PC-3 it was < 0.0195 µM (active). The GI50 was 0.011 µM (active) in the assay with RXF 393; 0.348 µM (active) in the assay on SF-268; 0.0185 µM (active) in the assay on SF-539; 0.0214 µM (active) in the assay on SK-MEL-2; 0.173 µM (active) in the assay on SK-MEL-5; 0.266 µM (active) in the assay on SW-620. In the assay with UO-31, the GI50 was < 0.01 µM (active).

For the compound `CC(C)[Si](OC1=C(C(=O)N(C)c2ccccc2Cl)CCCC1)(C(C)C)C(C)C`, the GI50 with 786-0 is 17.1 µM (inactive); with A498, 16.9 µM (inactive); with COLO 205 it was 14.5 µM (inactive); with DU-145, 10.6 µM (inactive); with HOP-92 it was 13.3 µM (inactive); in the assay on IGROV-1, 16.9 µM (inactive). Besides, the GI50 was 14.2 µM (inactive) with KM12; 14.1 µM (inactive) in the assay on MOLT-4; 5.77 µM (inactive) with NCI-H522; 13.9 µM (inactive) in the assay with OVCAR-4; 16.2 µM (inactive) in the assay on OVCAR-8; 11.4 µM (inactive) in the assay with PC-3. Also, the GI50 was 16.1 µM (inactive) with RXF 393; 13.9 µM (inactive) in the assay with SF-268; 18 µM (inactive) in the assay with SF-539; 14.1 µM (inactive) in the assay on SK-MEL-2; 13.8 µM (inactive) in the assay with SK-MEL-5; 15.2 µM (inactive) in the assay with SW-620. Moreover, the GI50 with UO-31 was 14.5 µM (inactive).

These data come from ChEMBL document CHEMBL1201862, “PubChem BioAssay data set” (2004).
